Key:
[1] = Growth inhibition, sulforhodamine B (SRB) assay; assay type: cell-based; conditions: human, salts
Procedure: (§1) Growth inhibition was measured in three human ovarian carcinoma cell lines (A2780, CH1, and SKOV-3) and one human cervix carcinoma cell line (A431) using the sulforhodamine B (SRB) assay. Briefly, between 3000 and 6000 cells were seeded into the wells of 96-well microtiter plates and allowed to attach overnight. Compounds (acid addition and quaternary dimethiodide salts) were dissolved at 500 μM in water and immediately added to wells in quadruplicate at final concentrations of 0.05, 0.25, 1, 5 and 25 μM. Following an incubation period of 96 hr, remaining cells were fixed with ice-cold 10% w/v trichloroacetic acid (30 min) and stained with 0.4% SRB in 1% v/v acetic acid (15 min). Mean absorbance at 540 nm for each drug concentration was expressed as a percentage of the control untreated well absorbance, and IC50 values (concentration required to inhibit cell growth by 50%) were determined for each agent.

[2] = tested on: telomerase; assay: Modified telomeric repeat amplification protocol (TRAP) assay, cell-free; assay type: biochemical; conditions: extracts from A2780 human ovarian carcinoma cells, salts, read-out: telIC50
Procedure: The ability of compounds to inhibit telomerase in a cell-free assay was assessed with a modified TRAP assay using extracts from exponentially growing A2780 human ovarian carcinoma cells. The TRAP assay was performed in 2 steps: (a) telomerase-mediated extension of the forward primer (TS: 5′-AATCCGTCGAGCAGAGTT, Oswel Ltd., Southampton, UK) contained in a 40 μL reaction mix comprising TRAP buffer (20 mM Tris-HCl (pH 8.3), 68 mM KCl, 1.5 mM MgCl2, 1 mM EGTA, 0.05% v/v Tween 20), 0.05 μg bovine serum albumin, 50 μM of each deoxynucleotide triphosphate, 0.1 μg TS primer, and […] of [α-^32P]dCTP (Amersham pic, UK). Protein (40 ng or 20 ng) was then incubated with the reaction mix+agent (acid addition and quaternary dimethiodide salts) at final concentrations of up to 50 μM for 20 min at 25° C. A lysis buffer (no protein) control, heat-inactivated protein control, and 50% protein (20 ng or 10 ng) control were included in each assay; and (b) while heating at 80° C. in a PCR block of a thermal cycler (Hybaid, UK) for 5 min to inactivate telomerase activity, 0.1 μg of reverse CX primer (3′-[…]-5′) and 2 Units of Taq DNA polymerase (“red hot”, Advanced Biotechnologies) were added. A 3-step PCR was then performed: 94° C. for 30 s, 50° C. for 30 s, and 72° C. for 1 min for 31 cycles. Telomerase-extended PCR products in the presence or absence of compounds were then determined either by electrophoretic separation using 8% w/w acrylamide denaturing gels and analysis by phosphorimaging or autoradiography, or by harvesting on Whatman filters (25 mm glass microfibre) and analysis by liquid scintillation counting.

[3] = Growth inhibition, SRB assay, mean over the four cell lines; assay type: cell-based; conditions: human, mean of A2780, CH1, SKOV-3, A431, 96 hr incubation, salts, read-out: Cytotoxicity - IC50, mean value for the four (4) cell lines
Procedure: as §1

[4] = A431 cervix carcinoma cells, A431, 96 hr incubation, read-out: Cytotoxicity - IC50 A431
[5] = A2780 ovarian carcinoma cells, A2780, 96 hr incubation, read-out: Cytotoxicity - IC50 A2780
[6] = CH1 ovarian carcinoma cells, CH1, 96 hr incubation, read-out: Cytotoxicity - IC50 CH1
[7] = SKOV-3 ovarian carcinoma cells, SKOV-3, 96 hr incubation, read-out: Cytotoxicity - IC50 SKOV-3

Structure (SMILES) | IC50 at 96 h [1, 4] | IC50 at 96 h [1, 5] | IC50 at 96 h [1, 6] | IC50 at 96 h [1, 7] | IC50 [2] | IC50 at 96 h [3]
CN(C)CCCNc1ccc2cc3ccc(NCCCN(C)C)cc3nc2c1 [SB-ACI-04, 3,6-Bis[(N,N-dimethylaminopropyl)amino]acridine] | 700 nM | 1800 nM | 2000 nM | 3900 nM | 200 nM | 
CCN(CC)CCNc1ccc2cc3ccc(NCCN(CC)CC)cc3nc2c1 [SB-ACI-05, 3,6-Bis[(N,N-diethylaminoethyl)amino]acridine] | 200 nM | 100 nM | 200 nM | 700 nM | 540 nM | 
CC(C)N(CCNc1ccc2cc3ccc(NCCN(C(C)C)C(C)C)cc3nc2c1)C(C)C [SB-ACI-06, 3,6-Bis[(N,N-diisoproyplaminoethyl)amino]acridine] | 1000 nM | 400 nM | 600 nM | 1300 nM | 590 nM | 
CN(C)CCNc1ccc2cc3ccc(NCCN(C)C)cc3nc2c1 [SB-ACI-10, 3,6-Bis[(N,N-dimethylaminoethyl)amino]acridine] | 200 nM | 200 nM | 100 nM | 200 nM | 480 nM | 
c1cc2cc3ccc(NCCCN4CCCC4)cc3nc2cc1NCCCN1CCCC1 [SB-ACI-23, 3,6-Bis[(3-pyrolidino)propylamino]acridine] |  |  |  |  | 181 nM | 1600 nM
CCN(CC)CCCNc1ccc2cc3ccc(NCCCN(CC)CC)cc3nc2c1 [SB-ACI-24, 3,6-Bis[(3-diethylamino)propylamino]acridine] |  |  |  |  | 222 nM | 1800 nM
c1cc2cc3ccc(NCCCN4CCCCC4)cc3nc2cc1NCCCN1CCCCC1 [SB-ACI-25, 3,6-Bis[(3-piperidino)propylamino]acridine] |  |  |  |  | 218 nM | 500 nM
c1cc2cc3ccc(NCCCCN4CCCC4)cc3nc2cc1NCCCCN1CCCC1 [SB-ACI-26, 3,6-Bis[(4-pyrolidino)butylamino]acridine] |  |  |  |  | 153 nM | 2500 nM
c1ccc(NCCCNc2ccc3cc4ccc(NCCCNc5ccccc5)cc4nc3c2)cc1 [SB-ACI-27, 3,6-Bis[(3-phenylamino)propylamino]acridine] |  |  |  |  | 16800 nM | 1700 nM
CCN(CC)CCCCNc1ccc2cc3ccc(NCCCCN(CC)CC)cc3nc2c1 [SB-ACI-28, 3,6-Bis[(4-diethylamino)butylamino]-acridine] |  |  |  |  | 205 nM | 6300 nM
